Laboratory results: US20130252818A1, “AMORPHOUS BIOINORGANIC IONIC LIQUID COMPOSITIONS COMPRISING AGRICULTURAL SUBSTANCES” (priority 2012, published 2013)
Where a name gives a salt, the structure may show the parent alone. Read-outs that look alike come from different tables or passages of the source.

Legend:
[1] = test system: Pseudomonas aeruginosa biofilms; assay: Challenge of established biofilms with test compounds, CFU count; assay type: cell-based; details: 72 h biofilm, 6 h challenge
Pseudomonas aeruginosa = assay: Biofilm growth on IL-coated culture plates; assay type: cell-based; details: wells coated with 100 uL IL, 72 h
Method: (§1) A second example of clear, colorless antimicrobial films formed by compositions described herein was shown with an assay that involved coating culture plates with IL and observing the biofilm growth on the coated surface. […] Aliquots of 100 μL of either a Staphylococcus aureus culture, an E. coli culture, or a Pseudomonas aeruginosa culture were added to each coated well, the plate was fed with fresh media every 24 h, and cells were counted after 72 h, as described above. The number of cells in the treated wells was below the limit of detection of the assay of 1000 cfu/mL, as compared with normal cell counts for the LB control wells, indicating high antimicrobial efficacy of the IL coating. Because bacteria colonize a surface prior to barnacles and other organisms, proof of antibacterial effects is key to showing anti-biofouling potential in aquatic environments.

E. coli = assay: Biofilm growth on IL-coated culture plates; assay type: cell-based; details: wells coated with 100 uL IL, 72 h
Method: as §1

Staphylococcus aureus = assay: Biofilm growth on IL-coated culture plates; assay type: cell-based; details: wells coated with 100 uL IL, 72 h
Method: as §1

[2] = Thermogravimetric analysis (TGA), decomposition temperature; assay type: physicochemical
Method: Melting points of all purchased materials were determined in a capillary tube using a MeI-Temp apparatus (Barnstead/Thermo Scientific). NMR data sets were collected on a 300 MHz Bruker instrument using sample concentrations of 50 mM. Infrared spectra were measured using an Avatar 360 FT-IR ESP (ThermoElectron-Nicolet, Waltham, Mass.) equipped with a Smart DuraSampllR horizontal attenuated total reflectance (HATR) accessory. Raman spectra were measured using a Thermo-Nicolet 470 FTIR with Nd:YAG laser excitation and HgCdTe detector. Viscosity was measured on 1 mL samples with a Viscolab 3000 viscometer (Cambridge Viscosity, Medford, Mass.). Samples were heated to 90° C., except when otherwise specified, and viscosity was recorded in 2 degree increments between 50 and 90° C. with 8 min equilibration at each temperature. Thermal characterization was carried out using a Q100 DSC and a Q500 TGA (both from TA Instruments, New Castle, Del.). DSC was performed using a 5-10 mg sample in a 40 μL aluminum crucible sealed in the glovebox. A temperature range from −60 to 150° C. was scanned twice, at ramp rates of 5° C./min and 10° C./min. TGA was performed under N2 atmosphere over a temperature range from 25-800° C. with a ramp rate of 20° C. per minute and a sample size of 10 mg.

[3] = Storage under Ar, observed over 6 months for crystalline domains; assay type: physicochemical; details: stored under Ar
[4] = Shelf life estimate by model-free isoconversional kinetic analysis of TGA data; assay type: physicochemical
Method: Zinc(II) chloride (273 mg, 2 mmol) was added to a scintillation vial that had been heated, then cooled under vacuum and charged with dry argon. Phenoxybenzamine hydrochloride (340.3 mg, 1 mmol) was added to the vial with a stir bar and the mixture was degassed with stirring at 60° C. The vial was filled with argon, sealed with a cap, and stirred for 24 h at 80° C. to produce a clear, colorless glass. […] NMR spectra for ^1H and ^13C were obtained in d6-acetone. […] Spectra of phenoxybenzamine-HCl were performed with 0, 0.25, 0.5, 1.0, 1.5, 2.0, and 5.0 molar equivalents of ZnCl2 to observe this effect. Thermal decomposition after a 3 h incubation of the IL at a constant 120° C. was 2.7% of the starting mass. In contrast, the phenoxybenzamine hydrochloride starting material loses 38% of its mass after a similar incubation. The IL was soluble (>1 mM) in acetone, water and phosphate buffered to pH 6.0. The IL was insoluble (<1 mM) in toluene and tetrahydrofuran. […] Model-free isoconversional kinetic analysis (for more detail, see: Doyle, C. D., J. Appl. Polym. Sci. 1962, 6:639-642; and Long, G. T. et al., J. Pharm. Sci. 2002, 91:800-809) of TGA data was used to estimate increases in shelf life due to IL formulation for phenoxybenzamine hydrochloride and phenoxybenzamine-HCl—(ZnCl2)2. The onset of mass loss indicates loss of HCl during cyclization of the 2-chloroethylamine group, the most common decomposition pathway for phenoxybenzamine hydrochloride (for more detail, see: Adams, W. P. et al., Int. J. Pharm. 1985, 25:293-312). Formulation as an ionic liquid improves the shelf life (time to reach 5% decomposition) of solid phenoxybenzamine hydrochloride at 20° C. by 7.7-fold to 15.8 years. […] The manufacturer's shelf life for 10 mg phenoxybenzamine hydrochloride tablets is 2 years, or 730 days, and the calculated value for solid phenoxybenzamine hydrochloride (5% decay at 20° C.) was 750 days (2.05 years), indicating good agreement of the calculation with actual shelf life. The most common decomposition pathway for phenoxybenzamine hydrochloride is loss of hydrochloride during cyclization of the 2-chloroethylamine group (for more detail, see: Adams, W. P. et al., Int. J. Pharm. 1985, 25:293-312) and we expect this is the earliest mass loss observed by TGA. The IL phenoxybenzamine-HCl—(ZnCl2)2 is a stabilized, amorphous formulation with shelf life greater than that of the most common crystalline form.

[5] = Solubility at 1 mM in unbuffered water by eye and UV-Vis after filtration; details: for A268 of the filtrate: 0.45 μm syringe filter
Method: Solubility of phenoxybenzamine hydrochloride and phenoxybenzamine-HCl—(ZnCl2)2 at 1 mM in unbuffered water (pH 6.5) was evaluated by eye and by UV-Vis spectroscopy after filtration through a 0.45 μm syringe filter.

[6] = Solubility of the IL in solvents
[7] = assay type: physicochemical; details: 3 h incubation at constant 120° C.
[8] = TGA under N2, ramp 20° C. per minute
[9] = solid, 20° C., calculated from TGA kinetics
[10] = 1 mM in unbuffered water (pH 6.5)

[Cl-].[Na+] [NaCl]
Cell count remaining in biofilm ([1]; 5 M in LB): 1×10^6 cells

[Cl-].[Cl-].[Zn+2] [ZnCl2, Zinc(II) chloride]
Cell count remaining in biofilm ([1]; 1.8 M in LB): 4×10^5

CC(C)(C)CC(C)(C)c1ccc(OCCOCC[N+](C)(C)Cc2ccccc2)cc1 [Benzethonium-Cl—(ZnCl2)2]
Number of cells in treated wells (Pseudomonas aeruginosa): < 1000 cfu/mL | Number of cells in treated wells (E. coli): < 1000 cfu/mL | Number of cells in treated wells (Staphylococcus aureus): < 1000 cfu/mL

CC(C)(C)CC(C)(C)c1ccc(OCCOCC[N+](C)(C)Cc2ccccc2)cc1 [benzethonium chloride]
Viable dispersed cell count (conservative estimate, some exposures) ([1]; 78 mM in LB, precipitate impeded quantification): 5×10^4 cfu/mL

Ethambutol-(HCl)2—(ZnCl2)2
Tdec (decomposition temperature) [2, 8]: 216.5 °C | Appearance of crystalline domains on storage [3]: no crystalline domains appeared

CN1[C@@H]2CC[C@H]1CC(OC(=O)C(O)c1ccccc1)C2 (stereo partly shown) [Homatropine-HCl—(ZnCl2)2]
Tdec (decomposition temperature) [2]: 274.5 °C | ΔTdec (increase in decomposition temperature relative to HCl starting material) [2]: +7.8 °C | Appearance of crystalline domains on storage [3]: no crystalline domains appeared

CC(COc1ccccc1)N(CCCl)Cc1ccccc1.Cl.[Cl][Zn][Cl].[Cl][Zn][Cl] (stereo not shown) [Phenoxybenzamine-HCl—(ZnCl2)2]
ΔTdec (increase in decomposition temperature relative to HCl starting material) [2]: +45.1 °C | Tdec (decomposition temperature) [2, 8]: 259.0 °C | Improvement of shelf life over standard formulation in syrup and propylene glycol (4-day refrigerator shelf life) [4]: 1500 fold | Improvement of shelf life over solid phenoxybenzamine hydrochloride ([4]; 20° C., time to 5% decomposition): 7.7 fold | Shelf life (time to reach 5% decomposition) [4, 9]: 15.8 years | Appearance of crystalline domains on storage [3]: no crystalline domains appeared | Solubility evaluated by eye ([5]; 1 mM (0.34 mg/mL) in unbuffered water (pH 6.5)): completely dissolve | A268 of the filtrate relative to phenoxybenzamine hydrochloride solution [5, 10]: 5 × | A268 of the filtrate [5, 10]: 1.56 | Solubility ([6]; acetone): > 1000 µM | Solubility ([6]; phosphate buffered to pH 6.0): > 1000 µM | Solubility ([6]; tetrahydrofuran): < 1000 µM | Solubility ([6]; toluene): < 1000 µM | Solubility ([6]; water): > 1000 µM

CC(COc1ccccc1)N(CCCl)Cc1ccccc1 (stereo not shown) [phenoxybenzamine hydrochloride, reference compound]
Shelf life (5% decay) [4, 9]: 750 days | Shelf life (time to reach 5% decomposition) [4, 9]: 2.05 years | Thermal decomposition, % of the starting mass lost [7]: 38% | A268 of the filtrate [5, 10]: 0.30

CN(C)CCCN1c2ccccc2CCc2ccccc21.Cl.[Cl][Zn][Cl].[Cl][Zn][Cl] [Imipramine-HCl—(ZnCl2)2]
ΔTdec (increase in decomposition temperature relative to HCl starting material) [2]: +21.4 °C | Tdec (decomposition temperature) [2, 8]: 267.2 °C | Appearance of crystalline domains on storage [3]: no crystalline domains appeared

CCCC[N+]1(C)CCCC1.O=S(=O)([N-]S(=O)(=O)C(F)(F)F)C(F)(F)F [BMP-NTf2, 1-butyl-1-methypyrrolidinium bistriflimide]
Cell count remaining in biofilm ([1]; neat): 2×10^5

CNC(=C[N+](=O)[O-])NCCSCc1ccc(CN(C)C)o1.Cl.[Cl][Zn][Cl].[Cl][Zn][Cl]
ΔTdec (increase in decomposition temperature relative to HCl starting material) [2]: +14.1 °C | Appearance of crystalline domains on storage [3]: no crystalline domains appeared | Solubility ([6]; acetone): > 1000 µM

Procainamide-HCl—(ZnCl2)2
Appearance of crystalline domains on storage [3]: no crystalline domains appeared
